Results: publication PMC10044120, “Potent and selective covalent inhibition of the papain-like protease from SARS-CoV-2” (Nature Communications, 2023)
Read-outs that look alike come from different tables or passages of the source.

Columns and labels:
PLpro from SARS-CoV-2 [1] = target: T1, PLpro from SARS-CoV-2 (Severe acute respiratory syndrome coronavirus 2, UniProt P0DTD1); experiment: biochemical; format: biochemical; conditions: for remaining activity at 0.06 µM: inhibitor 0.06 uM; for remaining activity at 0.2 µM: inhibitor 0.20 uM; for IC50: after 30-min incubation, purified PLpro, Z-RLRGG-AMC substrate
PLpro from SARS-CoV-2 [2] = target: T1, PLpro from SARS-CoV-2; experiment: biochemical; format: biochemical; design: mean (kobs plot, Supplementary Figure 6 II): unit: min^-1; conditions: for Time dep. (time-dependent inhibition): fluorogenic peptide assay, varied preincubation time
[3] = tested on: SARS-CoV-2 isolate USA-WA1/2020; conditions: for EC50 (cytopathic effect): SARS-CoV-2-infected Vero E6 cells, 48 h; for inhibition: read-out: cytopathic effect, % cell viability, duplicate wells
Vero E6 cells = conditions: African green monkey, 48 h
in vitro = conditions: African green monkey
[4] = tested on: SARS-CoV-2 isolate USA-WA1/2020; experiment: microbe, parasite or virus in culture
[5] = Metabolic stability in rat liver microsomes; conditions: Sprague-Dawley
[6] = Metabolic stability in rat liver S9 fraction; conditions: Sprague-Dawley
[7] = Metabolic stability in mouse liver microsomes; conditions: CD-1, mouse
[8] = Metabolic stability in mouse liver S9 fraction; conditions: CD-1, mouse

Structure (SMILES): C#CC(=O)NNC(=O)CCc1ccccc1C(=O)N[C@H](C)c1cccc2ccccc12 [Compound 12, (R)-N-(1-(naphthalen-1-yl)ethyl)-2-(3-oxo-3-(2-propioloylhydrazineyl)propyl)benzamide]
- remaining activity at 0.06 µM (PLpro from SARS-CoV-2 [1]; 0.5 h): 75.9%
- remaining activity at 0.2 µM (PLpro from SARS-CoV-2 [1]; 0.5 h): 14.8%
- remaining activity at 200 µM (PLpro from SARS-CoV-2 [1]; 0.5 h, inhibitor 200.00 uM): 2.39%
- IC50 (PLpro from SARS-CoV-2 [1]): 98 nM
- kinact/KI (PLpro from SARS-CoV-2 [2]): 4100 M⁻¹ s⁻¹
- remaining activity at 0.2 µM (PLpro from SARS-CoV-2 [2]; 5 min, read-out: PLpro activity after preincubation, inhibitor 0.2 uM, preincubation 5 min): 80%
- remaining activity at 0.5 µM (PLpro from SARS-CoV-2 [2]; 5 min, read-out: PLpro activity after preincubation, inhibitor 0.5 uM, preincubation 5 min): 68.1%
- remaining activity at 0.6 µM (PLpro from SARS-CoV-2 [2]; 5 min, read-out: PLpro activity after preincubation, inhibitor 0.6 uM, preincubation 5 min): 59%
- remaining activity at 0.7 µM (PLpro from SARS-CoV-2 [2]; 5 min, read-out: PLpro activity after preincubation, inhibitor 0.7 uM, preincubation 5 min): 46.3%
- remaining activity at 0.2 µM (PLpro from SARS-CoV-2 [2]; 10 min, read-out: PLpro activity after preincubation, inhibitor 0.2 uM, preincubation 10 min): 69.8%
- remaining activity at 0.5 µM (PLpro from SARS-CoV-2 [2]; 10 min, read-out: PLpro activity after preincubation, inhibitor 0.5 uM, preincubation 10 min): 40.2%
- remaining activity at 0.6 µM (PLpro from SARS-CoV-2 [2]; 10 min, read-out: PLpro activity after preincubation, inhibitor 0.6 uM, preincubation 10 min): 41.8%
- remaining activity at 0.7 µM (PLpro from SARS-CoV-2 [2]; 10 min, read-out: PLpro activity after preincubation, inhibitor 0.7 uM, preincubation 10 min): 29.5%
- remaining activity at 0.2 µM (PLpro from SARS-CoV-2 [2]; 0.5 h, read-out: PLpro activity after preincubation, inhibitor 0.2 uM, preincubation 30 min): 87.5%
- remaining activity at 0.3 µM (PLpro from SARS-CoV-2 [2]; 0.5 h, read-out: PLpro activity after preincubation, inhibitor 0.3 uM, preincubation 30 min): 71%
- remaining activity at 0.5 µM (PLpro from SARS-CoV-2 [2]; 0.5 h, read-out: PLpro activity after preincubation, inhibitor 0.5 uM, preincubation 30 min): 14.4%
- remaining activity at 0.7 µM (PLpro from SARS-CoV-2 [2]; 0.5 h, read-out: PLpro activity after preincubation, inhibitor 0.7 uM, preincubation 30 min): 7.89%
- remaining activity at 0.2 µM (PLpro from SARS-CoV-2 [2]; 1 h, read-out: PLpro activity after preincubation, inhibitor 0.2 uM, preincubation 60 min): 83.5%
- remaining activity at 0.6 µM (PLpro from SARS-CoV-2 [2]; 1 h, read-out: PLpro activity after preincubation, inhibitor 0.6 uM, preincubation 60 min): 2.72%
- remaining activity at 0.2 µM (PLpro from SARS-CoV-2 [2]; […], read-out: PLpro activity after preincubation, inhibitor 0.2 uM, preincubation 15 min): 82%
- remaining activity at 0.2 µM (PLpro from SARS-CoV-2 [2]; […], read-out: PLpro activity after preincubation, inhibitor 0.2 uM, preincubation 45 min): 75.3%
- remaining activity at 0.2 µM (PLpro from SARS-CoV-2 [2]; […], read-out: PLpro activity after preincubation, inhibitor 0.2 uM, preincubation 90 min): 60%
- remaining activity at 0.3 µM (PLpro from SARS-CoV-2 [2]; […], read-out: PLpro activity after preincubation, inhibitor 0.3 uM, preincubation 90 min): 15.6%
- remaining activity at 0.5 µM (PLpro from SARS-CoV-2 [2]; […], read-out: PLpro activity after preincubation, inhibitor 0.5 uM, preincubation 15 min): 34.6%
- remaining activity at 0.5 µM (PLpro from SARS-CoV-2 [2]; […], read-out: PLpro activity after preincubation, inhibitor 0.5 uM, preincubation 45 min): 1.63%
- remaining activity at 0.6 µM (PLpro from SARS-CoV-2 [2]; […], read-out: PLpro activity after preincubation, inhibitor 0.6 uM, preincubation 15 min): 27.5%
- remaining activity at 0.7 µM (PLpro from SARS-CoV-2 [2]; […], read-out: PLpro activity after preincubation, inhibitor 0.7 uM, preincubation 15 min): 17.8%
- Time dep. (time-dependent inhibition) (PLpro from SARS-CoV-2 [2]): Time-dependent inhibition was observed and Yes
- mean (kobs plot, Supplementary Figure 6 II) (PLpro from SARS-CoV-2 [2]; inhibitor 0.20 uM): 0.0069
- mean (kobs plot, Supplementary Figure 6 II) (PLpro from SARS-CoV-2 [2]; inhibitor 0.30 uM): 0.0173
- mean (kobs plot, Supplementary Figure 6 II) (PLpro from SARS-CoV-2 [2]; inhibitor 0.5 uM): 0.0760
- mean (kobs plot, Supplementary Figure 6 II) (PLpro from SARS-CoV-2 [2]; inhibitor 0.6 uM): 0.0965
- mean (kobs plot, Supplementary Figure 6 II) (PLpro from SARS-CoV-2 [2]; inhibitor 0.7 uM): 0.1287
- EC50 (cytopathic effect) [3]: No CPE
- cytotoxicity, %cell viability (Vero E6 cells; 16.67 µM): 0.55%
- cytotoxicity, %cell viability (Vero E6 cells; 33.33 µM): 0.51%
- CC50 at 48 h (in vitro; CC50): 1000 to 5000 nM
- viability at 48 h, 8.33 µM (in vitro; cytotoxicity, %cell viability): 0.83%
- viability at 48 h, 16.67 µM (in vitro; cytotoxicity, %cell viability): 0.57%
- viability at 48 h, 33.33 µM (in vitro; cytotoxicity, %cell viability): 1.02%
- inhibition at […] ([4]; Severe acute respiratory syndrome coronavirus 2, Vero C1008, read-out: cytopathic effect, % cell viability): 6.23%

Structure (SMILES): C[C@@H](NC(=O)c1ccccc1CCC(=O)NNC(=O)C(C#N)=CC1CC1)c1cccc2ccccc12 [Compound 13, (R)-2-(3-(2-(2-cyano-3-cyclopropylacryloyl)hydrazineyl)-3-oxopropyl)-N-(1-(naphthalen-1-yl)ethyl)benzamide]
- remaining activity at 0.06 µM (PLpro from SARS-CoV-2 [1]; 0.5 h): 101%
- remaining activity at 0.2 µM (PLpro from SARS-CoV-2 [1]; 0.5 h): 107%
- remaining activity at 6.34 µM (PLpro from SARS-CoV-2 [1]; 0.5 h, inhibitor 6.34 uM): 109%
- remaining activity at 20 µM (PLpro from SARS-CoV-2 [1]; 0.5 h, inhibitor 20.00 uM): 90.5%
- IC50 (PLpro from SARS-CoV-2 [1]): > 200000 nM
- Time dep. (time-dependent inhibition) (PLpro from SARS-CoV-2 [2]): not and No
- EC50 (cytopathic effect) [3]: No CPE
- cytotoxicity, %cell viability (Vero E6 cells; 2.08 µM): 72.90%
- cytotoxicity, %cell viability (Vero E6 cells; 16.67 µM): 0.71%
- viability at 48 h, 2.08 µM (in vitro; cytotoxicity, %cell viability): 83.5%
- viability at 48 h, 16.67 µM (in vitro; cytotoxicity, %cell viability): 0.88%

Structure (SMILES): CC(C)NCC(O)COc1cccc2ccccc12 (centres unmarked) [propranolol, reference compound]
- half-life [5]: 3 min
- half-life [6]: 3 min
- half-life [7]: 20 min
- half-life [8]: 6 min

Structure (SMILES): CCC(CC)COC(=O)[C@H](C)N[P@](=O)(OC[C@H]1O[C@@](C#N)(c2ccc3c(N)ncnn23)[C@H](O)[C@@H]1O)Oc1ccccc1 [remdesivir, reference compound]
- % cell viability, cytopathic effect ([3]; 5.00 uM): 97.274%
- % cell viability, cytopathic effect ([3]; 10.00 uM): 97.073%
- inhibition ([3]; [inhibitor] 5.00 uM, 5 µM): 97.3%
- inhibition ([3]; [inhibitor] 10.00 uM, 10 µM): 97.1%
- EC50 ([4]; Severe acute respiratory syndrome coronavirus 2, Vero C1008, 48 h, read-out: EC50 (cytopathic effect)): 740 nM
- viability at 5 µM ([4]; Severe acute respiratory syndrome coronavirus 2, Vero C1008, read-out: % cell viability, cytopathic effect, 5.00 uM): 102%
- viability at 10 µM ([4]; Severe acute respiratory syndrome coronavirus 2, Vero C1008, read-out: % cell viability, cytopathic effect, 10.00 uM): 101%
- inhibition at 5 µM ([4]; Severe acute respiratory syndrome coronavirus 2, Vero C1008, read-out: cytopathic effect, % cell viability, [inhibitor] 5.00 uM, duplicate wells): 102%
- inhibition at 10 µM ([4]; Severe acute respiratory syndrome coronavirus 2, Vero C1008, read-out: cytopathic effect, % cell viability, [inhibitor] 10.00 uM, duplicate wells): 101%
